Experimental findings from patent US20230286970A1, “NOVEL OXADIAZOLE-BASED SELECTIVE HDAC6 INHIBITORS” (ITALFARMACO S.P.A., priority 2020, published 2023) are described below.

Each structure is given as a SMILES string. A value given as a limit tells only on which side of the number the result lay.

One series has as its target recombinant human HDAC6 (Homo sapiens (Human), UniProt Q9UBN7). Put plainly: Enzymatic screening, HDAC6 inhibition (fluorogenic FdL_G substrate). Type of series: biochemical. The gist of the method: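 Enzyme was preincubated with compound (8 doses, triplicate, 1% DMSO) in 25 mM Tris-HCl pH 8, 130 mM NaCl, 0.05% Tween-20, 10% glycerol, with BSA. A FLUOR DE LYS-Green substrate was then added, and fluorescence was read after developer plus 2 μM TSA.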

The target of a further series is recombinant human HDAC1 (Homo sapiens (Human), UniProt Q13547). Put plainly: Enzymatic screening, HDAC1 inhibition (fluorogenic FdL_G substrate). Type of series: biochemical. In outline:
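Recombinant human HDAC1 inhibition was measured fluorometrically using the FLUOR DE LYS-Green (FdL_G) substrate. Compounds at 8 doses (1% DMSO final) in Tris-HCl pH 8 buffer with NaCl, Tween-20 and glycerol were preincubated in triplicate with enzyme and 1 mg/mL BSA, then given substrate. Developer I plus 2 μM TSA was added, and fluorescence read after 25 minutes in the dark.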

A further series has as its target HDAC2 (Homo sapiens (Human), UniProt Q92769). The series is described as follows: Enzymatic screening, HDAC2 inhibition. Type of series: biochemical. On the procedure:
(§1) For each test compound, 100× concentrated DMSO solutions at 8 doses were prepared and then diluted in assay buffer (25 mM Tris-HCl, pH 8, 130 mM NaCl, 0.05% Tween-20, 10% Glycerol) to obtain 5× concentrated solutions in relation to the final concentrations (typical final concentration range—6.4-200000 nM or 0.18-50000 nM, final DMSO content—1%). Then 10 μL solution of each test compound concentration were placed on a 96-well plate in triplicate and 15 μL of 3.33× concentrated enzyme solution in the assay buffer containing 3.33× concentrated BSA (final BSA concentration—2 mg/mL for HDAC4, HDAC5 and HDAC9 or 1 mg/mL for other isoforms) and in the case of HDAC6-3.33× concentrated TCEP (final TCEP concentration—200 μM) were added to each well. After a period of preincubation (incubation times and temperatures vary for different isoforms and are shown in table 1) 25 μL of solution containing the substrate were added. As substrate, FLUOR DE LYS® deacetylase substrate (Enzo Life Sciences, cat: BML-KI104, FdL), FLUOR DE LYS®-Green substrate (Enzo Life Sciences, cat: BML-KI572, FdL_G) or Boc-Lys(Tfa)-AMC (Bachem, cat: 4060676.005, Tfal)—2× concentrated solution in assay buffer were used. Following a reaction period (reaction times and temperatures vary for different isoforms and are reported in Table 1), 50 μL of the development solution consisting of concentrate FLUOR DE LYS® developer I (Enzo Life Sciences, ca: BML-KI105), diluted 200 times in buffer (50 mM Tris-HCl, pH 8, 137 mM NaCl, 2.7 mM KCl, 1 mM MgCl2) plus 2 μM TSA was added and, after 25 minutes at room temperature in the dark, using the Victor 1420 Multilabel Counter Perkin Elmer Wallac instrument, the fluorescence reading was carried out.

Another series deals with HDAC3 (Homo sapiens (Human), UniProt O15379). Put plainly: Enzymatic screening, HDAC3 inhibition. Type of series: biochemical. On the procedure:
as §1

A further series concerns the target HDAC4 (Homo sapiens (Human), UniProt P56524). The series is described as follows: Enzymatic screening, HDAC4 inhibition. Type of series: biochemical. On the procedure: as §1
For the next series, the target named is HDAC5 (Homo sapiens (Human), UniProt Q9UQL6). Put plainly: Enzymatic screening, HDAC5 inhibition. Type of series: biochemical. On the procedure:
as §1

A further series has as its target HDAC7 (Homo sapiens (Human), UniProt Q8WUI4). Put plainly: Enzymatic screening, HDAC7 inhibition. Type of series: biochemical. On the procedure:
as §1

A further series concerns the target HDAC8 (Homo sapiens (Human), UniProt Q9BY41). The series is described as follows: Enzymatic screening, HDAC8 inhibition. Type of series: biochemical. On the procedure:
as §1

For the next series, the target named is HDAC9 (Homo sapiens (Human), UniProt Q9UKV0). The series is described as follows: Enzymatic screening, HDAC9 inhibition. Type of series: biochemical. On the procedure:
as §1

In another series the target is HDAC10 (Homo sapiens (Human), UniProt Q969S8). The series is described as follows: Enzymatic screening, HDAC10 inhibition. Type of series: biochemical. On the procedure:
as §1

In the next series the target is HDAC11 (Homo sapiens (Human), UniProt Q96DB2). Put plainly: Enzymatic screening, HDAC11 inhibition. Type of series: biochemical. On the procedure:
as §1

Series [1] relates to α-tubulin acetylation in 697 cell line. The series is described as follows: In vitro α-tubulin acetylation in 697 cell line (ELISA). Type of series: cell-based. The following applies: 16 hours, read-out: fold increase @ 1 uM TubAc (ratio of acetylated tubulin and total tubulin towards control). In outline: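 B 697 cells in RPMI 10% FCS were treated for 16 h at 37 °C with compound at 1000, 333, 111 or 37 nM. Lysate (0.3 μg protein) was coated and probed by ELISA for acetylated and total α-tubulin, read at 450 nm. The acetylated/total ratio is given as fold over untreated control.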

Another series can be described thus: Stability in rat plasma. The note with it: after 4 hours, 37° C.
Series [2] is described as follows: Stability in human plasma. The following applies: after 4 hours, 37° C.
The nature of series [3]: Stability to Phase I metabolism in rat S9 liver fraction. The note with it: after 90 minutes, 37° C.
Series [4] is described as follows: Stability to Phase I metabolism in human S9 liver fraction. The note with it: after 90 minutes, 37° C.

Chain of HDAC8 (Q9BY41 whole entry): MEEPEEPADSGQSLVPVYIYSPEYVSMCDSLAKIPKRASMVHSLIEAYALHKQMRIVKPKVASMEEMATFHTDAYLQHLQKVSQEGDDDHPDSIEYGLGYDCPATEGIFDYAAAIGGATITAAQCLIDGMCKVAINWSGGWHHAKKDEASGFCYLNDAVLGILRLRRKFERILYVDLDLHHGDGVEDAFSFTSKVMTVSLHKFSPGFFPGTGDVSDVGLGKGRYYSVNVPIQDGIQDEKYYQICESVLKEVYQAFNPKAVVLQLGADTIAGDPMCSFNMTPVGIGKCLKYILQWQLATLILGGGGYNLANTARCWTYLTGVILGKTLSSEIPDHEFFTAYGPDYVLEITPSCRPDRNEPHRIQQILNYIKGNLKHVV
Chain of HDAC9 (Q9UKV0 whole entry): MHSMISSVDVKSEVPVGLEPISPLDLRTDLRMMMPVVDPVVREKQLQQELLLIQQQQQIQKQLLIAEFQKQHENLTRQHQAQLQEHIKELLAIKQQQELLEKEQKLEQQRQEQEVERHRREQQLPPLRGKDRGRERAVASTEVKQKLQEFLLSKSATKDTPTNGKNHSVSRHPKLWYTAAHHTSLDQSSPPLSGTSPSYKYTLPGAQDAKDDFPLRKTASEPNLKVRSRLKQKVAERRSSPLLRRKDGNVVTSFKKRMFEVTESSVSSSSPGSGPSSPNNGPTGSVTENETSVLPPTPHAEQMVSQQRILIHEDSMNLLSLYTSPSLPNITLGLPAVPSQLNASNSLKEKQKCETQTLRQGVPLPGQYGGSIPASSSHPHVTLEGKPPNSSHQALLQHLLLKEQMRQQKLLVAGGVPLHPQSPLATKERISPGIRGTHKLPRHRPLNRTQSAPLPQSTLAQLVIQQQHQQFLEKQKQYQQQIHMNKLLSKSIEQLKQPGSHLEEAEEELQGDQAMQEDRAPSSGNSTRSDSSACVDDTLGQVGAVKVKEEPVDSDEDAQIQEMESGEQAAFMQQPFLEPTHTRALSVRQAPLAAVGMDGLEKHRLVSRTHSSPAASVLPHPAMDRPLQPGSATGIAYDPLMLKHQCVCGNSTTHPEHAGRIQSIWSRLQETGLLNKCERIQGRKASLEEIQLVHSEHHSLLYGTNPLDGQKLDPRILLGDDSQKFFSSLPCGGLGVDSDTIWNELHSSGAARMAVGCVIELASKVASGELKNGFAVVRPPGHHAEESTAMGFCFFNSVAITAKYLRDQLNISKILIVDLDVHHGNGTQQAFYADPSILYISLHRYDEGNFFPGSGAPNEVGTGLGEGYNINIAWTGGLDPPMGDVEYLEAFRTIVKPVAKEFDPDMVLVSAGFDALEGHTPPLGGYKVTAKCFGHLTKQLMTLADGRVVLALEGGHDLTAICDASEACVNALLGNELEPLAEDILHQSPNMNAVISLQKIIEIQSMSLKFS
Chain of HDAC7 (Q8WUI4 whole entry): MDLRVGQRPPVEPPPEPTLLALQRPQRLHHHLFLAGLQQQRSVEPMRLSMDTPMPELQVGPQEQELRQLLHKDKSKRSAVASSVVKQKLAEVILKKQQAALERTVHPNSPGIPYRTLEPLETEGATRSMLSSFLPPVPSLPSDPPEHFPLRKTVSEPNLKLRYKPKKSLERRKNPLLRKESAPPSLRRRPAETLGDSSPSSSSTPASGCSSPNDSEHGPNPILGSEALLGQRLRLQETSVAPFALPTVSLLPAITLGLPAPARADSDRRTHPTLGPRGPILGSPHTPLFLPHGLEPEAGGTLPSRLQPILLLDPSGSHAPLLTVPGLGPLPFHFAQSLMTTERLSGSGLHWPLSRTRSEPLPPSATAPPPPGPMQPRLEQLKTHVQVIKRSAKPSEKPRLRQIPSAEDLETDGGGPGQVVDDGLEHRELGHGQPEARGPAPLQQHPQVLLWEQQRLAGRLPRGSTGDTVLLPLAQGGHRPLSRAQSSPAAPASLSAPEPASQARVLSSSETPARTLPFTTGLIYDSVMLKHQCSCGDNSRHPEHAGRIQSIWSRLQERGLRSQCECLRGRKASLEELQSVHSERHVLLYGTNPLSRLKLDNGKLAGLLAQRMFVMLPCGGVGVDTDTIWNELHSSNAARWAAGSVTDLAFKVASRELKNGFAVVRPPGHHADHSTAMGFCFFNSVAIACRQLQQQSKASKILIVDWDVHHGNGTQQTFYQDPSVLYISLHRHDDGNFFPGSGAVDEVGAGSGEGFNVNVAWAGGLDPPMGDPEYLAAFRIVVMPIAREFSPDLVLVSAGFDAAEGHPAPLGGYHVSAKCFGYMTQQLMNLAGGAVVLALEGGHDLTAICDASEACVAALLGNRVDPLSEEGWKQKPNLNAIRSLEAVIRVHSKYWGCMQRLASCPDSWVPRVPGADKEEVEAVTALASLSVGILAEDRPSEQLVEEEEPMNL
Chain of recombinant human HDAC1 (Q13547 whole entry): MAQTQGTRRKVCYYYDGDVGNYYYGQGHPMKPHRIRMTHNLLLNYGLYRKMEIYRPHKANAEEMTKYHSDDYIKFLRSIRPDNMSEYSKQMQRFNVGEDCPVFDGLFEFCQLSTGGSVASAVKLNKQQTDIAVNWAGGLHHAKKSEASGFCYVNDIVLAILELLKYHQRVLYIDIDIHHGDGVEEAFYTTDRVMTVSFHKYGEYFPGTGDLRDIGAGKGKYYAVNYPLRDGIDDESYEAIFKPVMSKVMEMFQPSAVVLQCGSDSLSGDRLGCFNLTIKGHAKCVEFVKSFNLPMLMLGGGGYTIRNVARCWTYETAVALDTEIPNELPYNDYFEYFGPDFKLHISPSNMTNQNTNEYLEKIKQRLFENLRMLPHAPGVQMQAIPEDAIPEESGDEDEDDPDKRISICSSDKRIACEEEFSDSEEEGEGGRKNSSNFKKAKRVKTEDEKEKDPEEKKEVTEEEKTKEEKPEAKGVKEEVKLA
Chain of HDAC5 (Q9UQL6 whole entry): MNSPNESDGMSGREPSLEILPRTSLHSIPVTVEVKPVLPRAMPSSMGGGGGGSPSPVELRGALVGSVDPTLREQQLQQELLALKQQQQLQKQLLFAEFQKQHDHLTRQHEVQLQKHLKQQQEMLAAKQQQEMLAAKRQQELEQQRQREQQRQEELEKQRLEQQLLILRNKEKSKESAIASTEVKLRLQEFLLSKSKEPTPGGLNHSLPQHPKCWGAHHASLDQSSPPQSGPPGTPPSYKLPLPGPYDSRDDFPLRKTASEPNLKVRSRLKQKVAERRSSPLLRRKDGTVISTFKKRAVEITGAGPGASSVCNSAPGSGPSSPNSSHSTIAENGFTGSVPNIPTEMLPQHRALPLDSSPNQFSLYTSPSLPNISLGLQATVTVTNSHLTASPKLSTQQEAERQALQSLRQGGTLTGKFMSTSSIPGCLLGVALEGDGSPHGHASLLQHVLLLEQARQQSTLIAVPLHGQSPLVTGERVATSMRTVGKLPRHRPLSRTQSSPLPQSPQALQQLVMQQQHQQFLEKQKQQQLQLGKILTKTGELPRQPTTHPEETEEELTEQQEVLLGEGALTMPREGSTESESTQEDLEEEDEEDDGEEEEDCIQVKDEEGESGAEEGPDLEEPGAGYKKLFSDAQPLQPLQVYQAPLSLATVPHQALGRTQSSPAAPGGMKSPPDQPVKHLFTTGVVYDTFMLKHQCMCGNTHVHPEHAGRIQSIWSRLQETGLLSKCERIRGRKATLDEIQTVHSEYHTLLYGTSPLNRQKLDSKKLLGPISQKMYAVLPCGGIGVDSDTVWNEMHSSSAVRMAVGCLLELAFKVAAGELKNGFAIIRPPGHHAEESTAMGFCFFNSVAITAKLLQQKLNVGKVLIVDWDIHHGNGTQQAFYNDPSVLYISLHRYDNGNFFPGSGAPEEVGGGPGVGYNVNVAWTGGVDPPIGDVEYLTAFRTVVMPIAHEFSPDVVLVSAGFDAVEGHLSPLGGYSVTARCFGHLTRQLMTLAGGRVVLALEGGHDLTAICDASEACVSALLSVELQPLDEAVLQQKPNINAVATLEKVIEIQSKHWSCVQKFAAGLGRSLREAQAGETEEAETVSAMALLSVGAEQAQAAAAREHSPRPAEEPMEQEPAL
Chain of HDAC4 (P56524 whole entry): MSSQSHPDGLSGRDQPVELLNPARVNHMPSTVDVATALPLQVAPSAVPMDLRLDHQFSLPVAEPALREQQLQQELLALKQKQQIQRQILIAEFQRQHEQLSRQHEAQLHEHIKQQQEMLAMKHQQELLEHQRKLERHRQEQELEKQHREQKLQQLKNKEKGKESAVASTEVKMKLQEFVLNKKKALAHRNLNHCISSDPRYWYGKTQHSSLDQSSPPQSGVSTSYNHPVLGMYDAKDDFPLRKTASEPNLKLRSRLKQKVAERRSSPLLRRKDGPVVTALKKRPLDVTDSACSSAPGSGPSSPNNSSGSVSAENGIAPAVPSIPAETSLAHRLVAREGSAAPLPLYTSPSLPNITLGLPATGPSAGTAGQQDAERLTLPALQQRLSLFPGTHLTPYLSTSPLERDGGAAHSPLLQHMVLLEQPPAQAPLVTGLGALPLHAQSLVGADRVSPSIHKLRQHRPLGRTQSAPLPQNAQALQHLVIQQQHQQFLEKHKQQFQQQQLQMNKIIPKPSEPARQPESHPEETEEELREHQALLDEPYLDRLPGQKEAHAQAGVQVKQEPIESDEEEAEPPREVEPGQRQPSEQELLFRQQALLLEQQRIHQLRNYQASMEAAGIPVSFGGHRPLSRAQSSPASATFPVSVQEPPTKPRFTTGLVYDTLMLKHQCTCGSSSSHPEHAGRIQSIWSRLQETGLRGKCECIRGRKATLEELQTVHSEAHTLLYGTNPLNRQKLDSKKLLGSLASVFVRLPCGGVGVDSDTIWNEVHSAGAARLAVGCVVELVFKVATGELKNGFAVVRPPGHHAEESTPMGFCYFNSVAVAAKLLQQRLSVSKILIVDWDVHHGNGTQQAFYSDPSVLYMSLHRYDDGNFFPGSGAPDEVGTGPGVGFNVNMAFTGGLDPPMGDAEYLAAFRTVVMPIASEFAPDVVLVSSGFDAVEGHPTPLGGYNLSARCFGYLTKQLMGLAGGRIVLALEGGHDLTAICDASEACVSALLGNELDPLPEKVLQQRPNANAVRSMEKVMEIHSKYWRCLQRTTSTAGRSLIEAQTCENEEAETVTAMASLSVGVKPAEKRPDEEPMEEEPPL

`Cn1c(N)nc2cc(-c3nnn(Cc4ccc(-c5nnc(C(F)F)o5)cc4)n3)ccc21` [compound 11, 5-(2-(4-(5-(difluoromethyl)-1,3,4-oxadiazol-2-yl)benzyl)-2H-tetrazol-5-yl)-1-methyl-1H-benzo[d]imidazol-2-amine]: the IC50 on recombinant human HDAC6 was 0.019 µM; at recombinant human HDAC1 it was > 200 µM; against HDAC2 it was > 30 µM; against HDAC3, > 30 µM; at HDAC4, > 30 µM; at HDAC5, > 30 µM. Also, the IC50 was > 30 µM against HDAC7; > 200 µM against HDAC8; > 30 µM at HDAC9; > 30 µM against HDAC10; > 30 µM against HDAC11. Further, the fold induction at 1 µM in series [1] turned out to be 18. In the series “Stability in rat plasma”, the “residual percentage in RAT PLASMA” value is 86%. The “residual percentage in HUMAN PLASMA” value in [2] amounted to 83%. The “residual percentage in RAT S9 FRACTION” value in [3] was determined as 90%. In addition, the “residual percentage in HUMAN S9 FRACTION” value in series [4] amounted to 70%.
Consider `Nc1ccc(-c2cn(Cc3ccc(-c4nnc(C(F)F)o4)cn3)cn2)cn1` [compound 12, 5-(1-((5-(5-(difluoromethyl)-1,3,4-oxadiazol-2-yl)pyridin-2-yl)methyl)-1H-imidazol-4-yl)pyridin-2-amine], for which the concentration for half-maximal inhibition (IC50) on recombinant human HDAC6 is 0.02 µM; on recombinant human HDAC1, > 200 µM; at HDAC2, > 30 µM; at HDAC3 it was > 30 µM; against HDAC4, > 30 µM; on HDAC5, > 30 µM. In addition, the half-maximal inhibitory concentration (IC50) was > 30 µM against HDAC7; > 200 µM at HDAC8; > 30 µM at HDAC9; > 30 µM on HDAC10; > 30 µM on HDAC11. Further, the fold induction at 1 µM in series [1] is 11. Further, the “residual percentage in RAT PLASMA” value in the series “Stability in rat plasma” is reported as 86%. The “residual percentage in HUMAN PLASMA” value in series [2] is recorded as 82%. The “residual percentage in RAT S9 FRACTION” value in series [3] amounted to 98%. The “residual percentage in HUMAN S9 FRACTION” value in series [4] is 96%.
Consider `Nc1ccc(-c2cnn(Cc3ccc(-c4nnc(C(F)F)o4)cn3)c2)cn1` [compound 13, 5-(1-((5-(5-(difluoromethyl)-1,3,4-oxadiazol-2-yl)pyridin-2-yl)methyl)-1H-pyrazol-4-yl)pyridin-2-amine], for which the IC50 is 0.023 µM at recombinant human HDAC6; > 200 µM on recombinant human HDAC1; > 30 µM against HDAC2; > 30 µM on HDAC3; > 30 µM against HDAC4; > 30 µM at HDAC5. The concentration for half-maximal inhibition (IC50) against HDAC7 is > 30 µM; against HDAC8, 197 µM; against HDAC9 it was > 30 µM; at HDAC10, > 30 µM; on HDAC11 it was > 30 µM. Further, in [1], the fold induction at 1 µM is 16. Also, the “residual percentage in RAT PLASMA” value in the series “Stability in rat plasma” was found to be 75%. Also, the “residual percentage in HUMAN PLASMA” value in series [2] came to 78%. In addition, in [3], the “residual percentage in RAT S9 FRACTION” value stood at 98%. In [4], the “residual percentage in HUMAN S9 FRACTION” value was found to be 97%.
For `O=C(Nc1cccc(-c2cn(Cc3ccc(-c4nnc(C(F)F)o4)c(F)c3)nn2)c1)N1CCOCC1` [compound 16, N-(3-(1-(4-(5-(difluoromethyl)-1,3,4-oxadiazol-2-yl)-3-fluorobenzyl)-1H-1,2,3-triazol-4-yl)phenyl)morpholine-4-carboxamide], the IC50 on recombinant human HDAC6 is 0.029 µM; at recombinant human HDAC1 it was > 200 µM; on HDAC2 it was > 30 µM; against HDAC3, > 30 µM; against HDAC4, > 30 µM; against HDAC5, > 30 µM. Besides, the half-maximal inhibitory concentration (IC50) on HDAC7 is > 30 µM; against HDAC8, > 200 µM; at HDAC9, > 30 µM; on HDAC10, > 30 µM; against HDAC11 it was > 30 µM. In series [1], the fold induction at 1 µM worked out at 19. The “residual percentage in RAT PLASMA” value in the series “Stability in rat plasma” was found to be 84%. For the same molecule, in series [2], the “residual percentage in HUMAN PLASMA” value is recorded as 75%. Also, in [3], the “residual percentage in RAT S9 FRACTION” value stood at 88%. Also, in [4], the “residual percentage in HUMAN S9 FRACTION” value came to 86%.
Turning to `CCNc1nc2ccc(-c3cn(Cc4ccc(-c5nnc(C(F)F)o5)cn4)nn3)cc2[nH]1` [compound 18, 5-(1-((5-(5-(difluoromethyl)-1,3,4-oxadiazol-2-yl)pyridin-2-yl)methyl)-1H-1,2,3-triazol-4-yl)-N-ethyl-1H-benzo[d]imidazol-2-amine], the IC50 at recombinant human HDAC6 is 0.008 µM; at recombinant human HDAC1, > 200 µM; on HDAC2, > 30 µM; on HDAC3, > 30 µM; on HDAC4, > 30 µM; against HDAC5 it was > 30 µM. Moreover, the half-inhibitory concentration (IC50) is > 30 µM at HDAC7; > 200 µM against HDAC8; > 30 µM on HDAC9; > 30 µM at HDAC10; > 30 µM against HDAC11. The fold induction at 1 µM in series [1] was 11. The “residual percentage in RAT PLASMA” value in “Stability in rat plasma” amounted to 69%. In [2], the “residual percentage in HUMAN PLASMA” value is on record as 84%. Further, the “residual percentage in RAT S9 FRACTION” value in [3] amounted to 91%. Moreover, the “residual percentage in HUMAN S9 FRACTION” value in series [4] is given as 82%.
On to `FC(F)c1nnc(-c2ccc(Cn3cnc(-c4ccc(NC5=NCCN5)cc4)c3)nc2)o1` [compound 20, N-(4-(1-((5-(5-(difluoromethyl)-1,3,4-oxadiazol-2-yl)pyridin-2-yl)methyl)-1H-imidazol-4-yl)phenyl)-4,5-dihydro-1H-imidazol-2-amine], for which the concentration for half-maximal inhibition (IC50) is 0.011 µM at recombinant human HDAC6; > 200 µM on recombinant human HDAC1; > 30 µM at HDAC2; > 30 µM on HDAC3; > 30 µM against HDAC4; > 30 µM against HDAC5. Also, the IC50 was > 30 µM against HDAC7; 578 µM against HDAC8; > 30 µM at HDAC9; > 30 µM against HDAC10; > 30 µM on HDAC11. The fold induction at 1 µM in series [1] was found to be 11. Moreover, the “residual percentage in RAT PLASMA” value in the series “Stability in rat plasma” was 82%. Moreover, the “residual percentage in HUMAN PLASMA” value in series [2] stood at 97%. For the same molecule, the “residual percentage in RAT S9 FRACTION” value in series [3] was 93%. Moreover, the “residual percentage in HUMAN S9 FRACTION” value in series [4] came out at 99%.
Take `Nc1ccc(-c2cn(Cc3ccc(-c4nnc(C(F)F)o4)c(F)c3F)nn2)cn1` [compound 21, 5-(1-(4-(5-(difluoromethyl)-1,3,4-oxadiazol-2-yl)-2,3-difluorobenzyl)-1H-1,2,3-triazol-4-yl)pyridin-2-amine]: the IC50 was 0.017 µM on recombinant human HDAC6; > 200 µM on recombinant human HDAC1; > 30 µM against HDAC2; > 30 µM on HDAC3; > 30 µM against HDAC4; > 30 µM at HDAC5. Moreover, the IC50 against HDAC7 is > 30 µM; on HDAC8, > 200 µM; against HDAC9, > 30 µM; on HDAC10, > 30 µM; against HDAC11, > 30 µM. In addition, the fold induction at 1 µM in [1] is 16. Also, the “residual percentage in RAT PLASMA” value in “Stability in rat plasma” came out at 75%. The “residual percentage in HUMAN PLASMA” value in series [2] was 84%. Also, the “residual percentage in RAT S9 FRACTION” value in series [3] turned out to be 90%. Also, the “residual percentage in HUMAN S9 FRACTION” value in series [4] was 99%.
